Laboratory results reported in PubChem BioAssay (NCI).
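Exposure lasted 48 hours, with cells grown in 96-well plates and compounds tested at five concentrations. Here, GI50 denotes the concentration required for 50% inhibition of growth. TGI is the concentration that stops growth completely.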

Assays:
Experiment in all cases: DTP human tumour cell line panel, 48 h
[1] = tested on: 786-0 renal
[2] = tested on: A498 renal
[3] = tested on: A549 NSCLC
[4] = tested on: ACHN renal
[5] = tested on: BT-549 breast
[6] = tested on: CAKI-1 renal
[7] = tested on: CCRF-CEM leukemia
[8] = tested on: COLO 205 colon
[9] = tested on: DU-145 prostate
[10] = tested on: EKVX NSCLC
[11] = tested on: HCC-2998 colon
[12] = tested on: HCT-116 colon
[13] = tested on: HCT-15 colon
[14] = tested on: HL-60(TB) leukemia
[15] = tested on: HOP-62 NSCLC
[16] = tested on: HOP-92 NSCLC
[17] = tested on: HS 578T breast
[18] = tested on: HT29 colon
[19] = tested on: IGROV1 ovarian
[20] = tested on: K-562 leukemia
[21] = tested on: KM12 colon
[22] = tested on: LOX IMVI melanoma
[23] = tested on: M14 melanoma
[24] = tested on: MALME-3M melanoma
[25] = tested on: MCF7 breast
[26] = tested on: MDA-MB-231 breast
[27] = tested on: MDA-MB-435
[28] = tested on: MDA-MB-468 breast
[29] = tested on: MOLT-4 leukemia
[30] = tested on: NCI-H226 lung
[31] = tested on: NCI-H23 lung
[32] = tested on: NCI-H460 lung
[33] = tested on: NCI-H522 lung
[34] = tested on: NCI/ADR-RES ovarian
[35] = tested on: OVCAR-3 ovarian
[36] = tested on: OVCAR-4 ovarian
[37] = tested on: OVCAR-5 ovarian
[38] = tested on: OVCAR-8 ovarian
[39] = tested on: PC-3 prostate
[40] = tested on: RPMI-8226 leukemia
[41] = tested on: RXF 393 renal
[42] = tested on: SF-268 CNS
[43] = tested on: SF-295 CNS
[44] = tested on: SF-539 CNS
[45] = tested on: SK-MEL-2 melanoma
[46] = tested on: SK-MEL-28 melanoma
[47] = tested on: SK-MEL-5 melanoma
[48] = tested on: SK-OV-3 ovarian
[49] = tested on: SN12C renal
[50] = tested on: SNB-19 CNS
[51] = tested on: SNB-75 CNS
[52] = tested on: SR leukemia
[53] = tested on: SW-620 colon
[54] = tested on: T-47D breast
[55] = tested on: TK-10 renal
[56] = tested on: U251 CNS
[57] = tested on: UACC-257 melanoma
[58] = tested on: UACC-62 melanoma
[59] = tested on: UO-31 renal

With `CC1(C)CC[C@]2(C(=O)O)CC[C@]3(C)C(=CCC4[C@@]5(C)C[C@@H](O)[C@@H]6OC(c7ccccc7F)OC[C@@]6(C)C5CC[C@]43C)C2C1` (stereo partly drawn) as the compound, how does the GI50 [1] read?
The GI50 was 4.4 µM.

And the TGI [1]?
Its TGI is 16 µM.

What about the GI50 [2] of the same compound?
Its GI50 is 7.09 µM.

What about the TGI [2] of the same compound?
The TGI was 20.2 µM.

What about the GI50 [3] of the same compound?
Its GI50 is 1.62 µM.

And the TGI [3]?
The TGI was 12.3 µM.

And the GI50 [4]?
The GI50 was 2.83 µM.

And the TGI [4]?
Its TGI is 12.3 µM.

What about the GI50 [5] of the same compound?
The GI50 was 2.84 µM.

What about the TGI [5] of the same compound?
Its TGI is 11.3 µM.

And the GI50 [6]?
Its GI50 is 3.8 µM.

And the TGI [6]?
The TGI was 14.4 µM.

And the GI50 [7]?
The GI50 was 2.53 µM.

And the TGI [7]?
Its TGI is 12.6 µM.

What about the GI50 [8] of the same compound?
Its GI50 is 2.73 µM.

And the TGI [8]?
The TGI was 8.52 µM.

What about the GI50 [9] of the same compound?
The GI50 was 6.27 µM.

And the TGI [9]?
Its TGI is 19.8 µM.

And the GI50 [10]?
The GI50 was 3.16 µM.

What about the TGI [10] of the same compound?
Its TGI is 14.5 µM.

And the GI50 [11]?
Its GI50 is 3.49 µM.

What about the TGI [11] of the same compound?
Its TGI is 14.1 µM.

What about the GI50 [12] of the same compound?
Its GI50 is 2.75 µM.

And the TGI [12]?
The TGI was 11.7 µM.

What about the GI50 [13] of the same compound?
Its GI50 is 2.14 µM.

What about the TGI [13] of the same compound?
The TGI was 10.9 µM.

What about the GI50 [14] of the same compound?
The GI50 was 2.67 µM.

What about the TGI [14] of the same compound?
The TGI was 9.82 µM.

What about the GI50 [15] of the same compound?
Its GI50 is 3.61 µM.

And the TGI [15]?
Its TGI is 15 µM.

What about the GI50 [16] of the same compound?
Its GI50 is 2.65 µM.

And the TGI [16]?
The TGI was 11.9 µM.

What about the GI50 [17] of the same compound?
The GI50 was 3.5 µM.

And the TGI [17]?
Its TGI is 16.2 µM.

And the GI50 [18]?
The GI50 was 3.6 µM.

What about the TGI [18] of the same compound?
Its TGI is 17.2 µM.

What about the GI50 [19] of the same compound?
The GI50 was 5.54 µM.

What about the TGI [19] of the same compound?
The TGI was 18.1 µM.

And the GI50 [20]?
The GI50 was 2.66 µM.

What about the TGI [20] of the same compound?
The TGI was 84.2 µM.

And the GI50 [21]?
The GI50 was 3.7 µM.

And the TGI [21]?
The TGI was 15.1 µM.

And the GI50 [22]?
The GI50 was 3.49 µM.

And the TGI [22]?
Its TGI is 14.2 µM.

And the GI50 [23]?
Its GI50 is 6.64 µM.

And the TGI [23]?
Its TGI is 20.6 µM.

What about the GI50 [24] of the same compound?
Its GI50 is 5.08 µM.

What about the TGI [24] of the same compound?
The TGI was 17.9 µM.

What about the GI50 [25] of the same compound?
The GI50 was 3.42 µM.

And the TGI [25]?
The TGI was 14.6 µM.

And the GI50 [26]?
The GI50 was 9.03 µM.

And the TGI [26]?
The TGI was 21.3 µM.

What about the GI50 [27] of the same compound?
The GI50 was 5.58 µM.

What about the TGI [27] of the same compound?
The TGI was 18.6 µM.

And the GI50 [28]?
The GI50 was 3.37 µM.

What about the TGI [28] of the same compound?
Its TGI is 14 µM.

What about the GI50 [29] of the same compound?
The GI50 was 2.09 µM.

What about the TGI [29] of the same compound?
Its TGI is 12 µM.

And the GI50 [30]?
The GI50 was 3.3 µM.

And the TGI [30]?
Its TGI is 15.1 µM.

What about the GI50 [31] of the same compound?
Its GI50 is 3.97 µM.

What about the TGI [31] of the same compound?
Its TGI is 15.7 µM.

And the GI50 [32]?
Its GI50 is 3.67 µM.

And the TGI [32]?
The TGI was 14.1 µM.

What about the GI50 [33] of the same compound?
The GI50 was 3.79 µM.

And the TGI [33]?
Its TGI is 16.8 µM.

What about the GI50 [34] of the same compound?
Its GI50 is 3.11 µM.

What about the TGI [34] of the same compound?
The TGI was 14.5 µM.

And the GI50 [35]?
The GI50 was 3.23 µM.

And the TGI [35]?
The TGI was 13.1 µM.

And the GI50 [36]?
Its GI50 is 5.19 µM.

And the TGI [36]?
The TGI was 19.4 µM.

And the GI50 [37]?
Its GI50 is 9.04 µM.

What about the TGI [37] of the same compound?
Its TGI is 21.1 µM.

What about the GI50 [38] of the same compound?
Its GI50 is 3.41 µM.

What about the TGI [38] of the same compound?
Its TGI is 15.6 µM.

What about the GI50 [39] of the same compound?
Its GI50 is 3.21 µM.

And the TGI [39]?
Its TGI is 18.3 µM.

What about the GI50 [40] of the same compound?
The GI50 was 2.09 µM.

And the TGI [40]?
The TGI was 16.1 µM.

What about the GI50 [41] of the same compound?
The GI50 was 2.54 µM.

What about the TGI [41] of the same compound?
The TGI was 7.92 µM.

What about the GI50 [42] of the same compound?
The GI50 was 5.04 µM.

And the TGI [42]?
Its TGI is 20.7 µM.

And the GI50 [43]?
Its GI50 is 2.72 µM.

And the TGI [43]?
The TGI was 13 µM.

And the GI50 [44]?
The GI50 was 3.65 µM.

And the TGI [44]?
Its TGI is 13 µM.

And the GI50 [45]?
The GI50 was 4.83 µM.

And the TGI [45]?
The TGI was 20 µM.

And the GI50 [46]?
The GI50 was 5.96 µM.

What about the TGI [46] of the same compound?
Its TGI is 18.4 µM.

What about the GI50 [47] of the same compound?
The GI50 was 3.39 µM.

And the TGI [47]?
The TGI was 12.7 µM.

What about the GI50 [48] of the same compound?
The GI50 was 4.51 µM.

What about the TGI [48] of the same compound?
Its TGI is 17.4 µM.

And the GI50 [49]?
Its GI50 is 3.57 µM.

What about the TGI [49] of the same compound?
Its TGI is 15.7 µM.

And the GI50 [50]?
Its GI50 is 3.75 µM.

And the TGI [50]?
The TGI was 15.8 µM.

And the GI50 [51]?
Its GI50 is 2.77 µM.

And the TGI [51]?
The TGI was 15 µM.

And the GI50 [52]?
Its GI50 is 3.29 µM.

And the TGI [52]?
Its TGI is 21.9 µM.

And the GI50 [53]?
Its GI50 is 4.34 µM.

And the TGI [53]?
Its TGI is 16.4 µM.

And the GI50 [54]?
The GI50 was 6.64 µM.

What about the TGI [54] of the same compound?
The TGI was 24.7 µM.

What about the GI50 [55] of the same compound?
Its GI50 is 6.03 µM.

What about the TGI [55] of the same compound?
The TGI was 19.8 µM.

What about the GI50 [56] of the same compound?
Its GI50 is 2.63 µM.

What about the TGI [56] of the same compound?
Its TGI is 12.9 µM.

What about the GI50 [57] of the same compound?
Its GI50 is 4.68 µM.

What about the TGI [57] of the same compound?
The TGI was 18.2 µM.

What about the GI50 [58] of the same compound?
The GI50 was 5.02 µM.

And the TGI [58]?
Its TGI is 18 µM.

And the GI50 [59]?
The GI50 was 2.53 µM.

And the TGI [59]?
Its TGI is 13.5 µM.
